Several values for one entry are separate records, joined by “and”; a condition that tells them apart may be missing. Equal values may be shown once. Values belong to the compound of their own block, whether it stands above or below them.
Legend:
IL-17 [1] = assay: Second animal study: IL-17 in skin homogenates (ELISA); type: in vivo, BALB/c mice
Description: (§1) In both studies, typical features of psoriasis, namely erythema, scaling, and skin thickness, were induced by the application of 5% w/w imiquimod (IMQ) cream on the dorsal skin of BALB/c mice over a period of 6 consecutive days. Animals that developed psoriasis-like symptoms were used for studying the efficacy of the fenoldopam topical compositions. In the fenoldopam-treated groups, the animals received imiquimod only for the first two days. From the third day of the study, the animals received imiquimod and fenoldopam for the next four days. First Animal Study: The different treatment groups of mice used in the first animal study were as following: the SHAM group in the study represents mice which were shaven on the dorsal side without any treatment; negative control group represents the typical psoriatic model induced by imiquimod 5% (IMQ); positive control group represents the mice induced with psoriasis by imiquimod and then treated with the marketed steroid betamethasone valerate (IMQ BMV); and treatment groups represent the mice induced with psoriasis by imiquimod and then treated with a topical dose of 1 mg/cm^2 fenoldopam using different compositions of fenoldopam, such as solution (IMQ FD), water-washable ointment (IMQ WB 45/55), or anhydrous gel (IMQ AG BHT) compositions.
(§2) The second animal study was conducted in order to test additional topical compositions of fenoldopam with different strengths (0.01%, 0.1% and 1% of fenoldopam), as well as the effect of systemic administration of fenoldopam. […]
(§3) The skin homogenates obtained from mice of the different groups were analyzed using ELISA for quantification of IL-17, IL-23, TNF-α, and IL-22 levels, as the selected interleukins are the typical inflammatory markers of psoriasis.

IL-17 [2] = assay: First animal study: IL-17 in skin homogenates (ELISA); type: in vivo, BALB/c mice; conditions: for Level of IL-17: vs. IMQ group
Description: as §1, with “The effect of topical compositions on the treatment of psoriasis has been tested in two animal studies. In both” for “In both”
(§4) An IMQ-induced psoriasis model reproduces biochemical and histopathological parameters characteristic of human psoriatic lesions. Topical application of the IMQ cream increased levels of cytokines such as IL-23, TNF-α, and IL-17 in the treated skin tissues. The skin homogenates obtained from mice of different groups were analyzed using ELISA for quantification of IL-17, IL-23, and TNF-α, levels as the selected interleukins are the typical inflammatory markers of psoriasis. […] The effect of fenoldopam was as effective as the reference topical treatment with the marketed steroid.

TNF-α [3] = assay: First animal study: TNF-α in skin homogenates (ELISA); type: in vivo, BALB/c mice; conditions: for Level of TNF-α: vs. IMQ group
Description: as §1, with “The effect of topical compositions on the treatment of psoriasis has been tested in two animal studies. In both” for “In both”
as §4

[4] = tested on: IMQ-induced psoriasis model; assay: First animal study: IMQ-induced psoriasis, phenotype and PASI scoring; type: in vivo, BALB/c mice
Description: (§5) The effect of topical compositions on the treatment of psoriasis has been tested in two animal studies. In both studies, typical features of psoriasis, namely erythema, scaling, and skin thickness, were induced by the application of 5% w/w imiquimod (IMQ) cream on the dorsal skin of BALB/c mice over a period of 6 consecutive days. Animals that developed psoriasis-like symptoms were used for studying the efficacy of the fenoldopam topical compositions. In the fenoldopam-treated groups, the animals received imiquimod only for the first two days. From the third day of the study, the animals received imiquimod and fenoldopam for the next four days. […]
Psoriatic area and severity index (PASI) scoring has been analyzed to determine the efficacy of the fenoldopam compositions of the present invention with appropriate controls as part of the study. FIG. 11 depicts PASI scoring including body weight, erythema, scaling, and skin thickness determined during the study. […]

[5] = tested on: IMQ-induced psoriasis model; assay: Second animal study: histopathology (H&E) of skin; type: in vivo, BALB/c mice; conditions: skin collected on the 7th day
Description: as §1, with “BHT) compositions. […]” for “BHT) compositions.”

IL-23 [6] = assay: First animal study: IL-23 in skin homogenates (ELISA); type: in vivo, BALB/c mice; conditions: for Level of IL-23: vs. IMQ group
Description: as §1, with “The effect of topical compositions on the treatment of psoriasis has been tested in two animal studies. In both” for “In both”
as §4

[7] = tested on: IMQ-induced psoriasis model; assay: Second animal study: IMQ-induced psoriasis, phenotype and PASI scoring; type: in vivo, BALB/c mice; conditions: for Psoriasis symptoms (phenotypic images: erythema, scaling, skin thickness): compared to negative control
Description: as §1, §2

[8] = tested on: IMQ-induced psoriasis model; assay: First animal study: histopathology (H&E) of dorsal skin; type: in vivo, BALB/c mice; conditions: vs. IMQ-treated group
Description: as §5

IL-23 [9] = assay: Second animal study: IL-23 in skin homogenates (ELISA); type: in vivo, BALB/c mice
Description: as §1
The second animal study was conducted in order to test additional topical compositions of fenoldopam with different strengths (0.01%, 0.1% and 1% of fenoldopam), as well as the effect of systemic administration of fenoldopam. The different groups of mice used in the second animal study were as following: the SHAM group in the study represents mice which were shaven on the dorsal side without any treatment; negative control group represents the typical psoriatic model induced by imiquimod 5% (IMQ); positive control group represents the mice induced with psoriasis by imiquimod and then treated with the marketed steroid betamethasone valerate (IMQ BMV); and treatment groups represent the mice induced with psoriasis by imiquimod and then treated with a topical dose of various compositions of fenoldopam: water-washable base (IMQ_WB45/55-0.01%, IMQ_WB45/55-0.1%, IMQ_WB45/55-1% or IMQ_WB45/55_1% No citric acid), or oleaginous ointment composition (IMQ_OB 0.01%, IMQ_OB 0.1% or IMQ_OB […]). An additional group of mice received systemic Fenoldopam by intraperitoneal injection (IMQ_FD_IP).
as §3

TNF-α [10] = assay: Second animal study: TNF-α in skin homogenates (ELISA); type: in vivo, BALB/c mice
Description: as §1, §2, §3

IL-22 = assay: Second animal study: IL-22 in skin homogenates (ELISA); type: in vivo, BALB/c mice
Description: as §1, §2, §3

[11] = Stability of fenoldopam in solution at different pH values (HPLC, UV detector 225 nm); type: physicochemical
Procedure: In order to evaluate the stability of fenoldopam in solutions maintained at various pHs above 4 and further solutions that were further adjusted back to an acidic pH, the following experiment was conducted. Fenoldopam mesylate was first dissolved in buffer phosphate at pH 2.5, in a concentration of 0.1 mg/mL (sample A). The solution was then divided into 5 samples:
Sample A: remains at pH 2.5
Sample B: pH was adjusted to pH 3.6 with NaOH.
Sample C: pH was adjusted to pH 6.6 with NaOH.
Sample D: pH was adjusted to pH 7.2 with NaOH.
Sample E: pH was adjusted to pH 9.3 with NaOH.
All samples were then analyzed by HPLC and UV detector at 225 nm. Table 1 represents the results obtained by the HPLC analysis conducted with the different fenoldopam samples.

[12] = Fenoldopam stability in solutions at different pH after 72 hours (Mass spectrometry); type: physicochemical
Procedure: FIGS. 1a-1e depict the effect of pH on fenoldopam stability. FIGS. 1a-e depict fenoldopam stability in solutions at different pH levels as determined by Mass Spectra (MS). Fenoldopam samples at a pH of 2.5 (FIG. 1a) and samples which were adjusted to a pH of 3.6 (FIG. 1b), 6.6 (FIG. 1c) and 7.2 (FIG. 1d) with NaOH were maintained for 72 hours, after which MS analysis was performed. FIG. 1e depicts the possible degradation products of fenoldopam obtained following exposure to a pH above 4.
Additional fenoldopam samples (Samples A3-D3) were maintained at a pH of 2.5, 3.6, 6.6 and 7.2 without adjustment back to pH 2.5 and were analyzed after 72 hours by HPLC at 225 nm and Mass spectrometry (MS).

SMILES: CCCCC(=O)O[C@]1(C(=O)CO)[C@@H](C)C[C@H]2[C@@H]3CCC4=CC(=O)C=C[C@]4(C)[C@@]3(F)[C@@H](O)C[C@@]21C [BMV, betamethasone valerate]
Fold difference in IL-17 levels (↓, vs. IMQ) (IL-17 [1]; listed as IMQ_BMV): 1.43 ↓ fold
Fold difference in IL-17 levels (↓, vs. IMQ) (IL-17 [1]; listed as positive control): 1.43 fold
Decrease in IL-17 levels in comparison with the IMQ group (IL-17 [2]; first animal study): 2.74 fold
Level of IL-17 (IL-17 [2]): inhibited
Decrease in TNF-α levels in comparison with the IMQ group (TNF-α [3]; first animal study): 2.75 fold
Level of TNF-α (TNF-α [3]): inhibited
Psoriatic symptoms (phenotypic images of dorsal skin) ([4]; IMQ-treated mice, topical treatment for four days, 1 mg/cm^2 fenoldopam): amelioration of psoriatic symptoms
PASI scores over the treatment period ([4]; scale of 0-4, vs. negative control): declines in PASI scores
Histopathology (H&E): psoriatic features [5]: ameliorated all of the above-mentioned parameters
Decrease in IL-23 levels in comparison with the IMQ group (IL-23 [6]; first animal study): 2.02 fold
Level of IL-23 (IL-23 [6]): inhibited
Psoriasis symptoms (phenotypic images: erythema, scaling, skin thickness) [7]: remission of the psoriasis symptoms
Psoriasis symptoms (phenotypic images: erythema, scaling, skin thickness) ([7]; listed as IMQ_BMV): amelioration of psoriatic symptoms
Histopathology (H&E): psoriatic features [8]: decline in the intensity of psoriatic features
Decline in IL-23 levels compared to the negative control (IL-23 [9]; listed as IMQ_BMV): decline in IL-23 levels
Fold difference in IL-23 levels (↓, vs. IMQ) (IL-23 [9]; listed as IMQ_BMV): 1.57 ↓ fold
Fold difference in IL-23 levels (↓, vs. IMQ) (IL-23 [9]; listed as positive control): 1.57 fold
Fold difference in TNF-α levels (↓, vs. IMQ) (TNF-α [10]; listed as IMQ_BMV): 2.21 ↓ fold
Fold difference in TNF-α levels (↓, vs. IMQ) (TNF-α [10]; listed as positive control): 2.21 fold
Fold difference in IL-22 levels (↓, vs. IMQ) (IL-22; listed as IMQ_BMV): 1.55 ↓ fold
Fold difference in IL-22 levels (↓, vs. IMQ) (IL-22; listed as positive control): 1.55 fold

RRT-0.9 (%) ([11]; Sample B1: pH 3.6 for 12 hours, then back to pH 2.5 for additional 5 hours): 0.9%
RRT-0.9 (%) ([11]; Sample B2: pH 3.6 for 12 hours, then back to pH 2.5 for additional 48 hours): 0.9%
RRT-0.9 (%) ([11]; Sample B3: pH 3.6 for 72 hours without adjustment back to pH 2.5): 1.0%
RRT-0.9 (%) ([11]; Sample B: pH 3.6 for 12 hours, 0.1 mg/mL, room temperature, protected from light): 0.9%
RRT-0.9 (%) ([11]; Sample C1: pH 6.6 for 12 hours, then back to pH 2.5 for additional 5 hours): 4.0%
RRT-0.9 (%) ([11]; Sample C2: pH 6.6 for 12 hours, then back to pH 2.5 for additional 48 hours): 4.0%
fenoldopam degraded ([11]; Sample C3: 72 hours at pH 6.6): 18%
RRT-0.9 (%) ([11]; Sample C3: pH 6.6 for 72 hours without adjustment back to pH 2.5): 17.5%
RRT-0.9 (%) ([11]; Sample C: pH 6.6 for 12 hours): 4.9%
RRT-0.9 (%) ([11]; Sample D1: pH 7.2 for 12 hours, then pH 2.5 for additional 5 hours): 11.6%
RRT-0.9 (%) ([11]; Sample D2: pH 7.2 for 12 hours, then back to pH 2.5 for additional 48 hours): 11.5%
fenoldopam degraded ([11]; Sample D3: 72 hours at pH 7.2): 50%
RRT-0.9 (%) ([11]; Sample D3: pH 7.2 for 72 hours without adjustment back to pH 2.5): 49.8%
RRT-0.9 (%) ([11]; Sample D: pH 7.2 for 12 hours): 15.8%
Fenoldopam, (%) ([11]; Sample E1: pH 9.3 for 12 hours, then pH 2.5 for additional 5 hours): 2%
Fenoldopam, (%) ([11]; Sample E2: pH 9.3 for 12 hours, then pH 2.5 for additional 48 hours): 2.2%
Fenoldopam, (%) ([11]; Sample E3: pH 9.3 for 72 hours without adjustment back to pH 2.5): No main peak
Fenoldopam, (%) ([11]; Sample E: pH 9.3 for 12 hours): No main peak
RRT-0.9 impurity ([11]; Samples B, B1, B2 (12 hours at pH 3.6, then pH 2.5) and B3 (72 hours at pH 3.6)): less than 1%
RRT-0.9 impurity ([11]; Samples C, C1 and C2 (12 hours at pH 6.6 followed by adjustment back to pH 2.5)): 4%
minor peak of fenoldopam ([11]; Samples E, E1, E2 and E3 (pH 9.3)): ~2%
Appearance of solution ([11]; pH 3.6): pH 3.6 - Clear
Appearance of solution ([11]; pH 6.6): pH 6.6 - yellowish
Appearance of solution ([11]; pH 7.2): pH 7.2 - yellowish
Appearance of solution ([11]; pH 9.3): pH 9.3- yellowish
Stability by MS analysis ([12]; pH of 6.6 and 7.2, after 3 days): formation of several peaks after 3 days
SMILES: Oc1ccc(C2CNCCc3c2cc(O)c(O)c3Cl)cc1 (centres unmarked) [Fenoldopam, 6-chloro-2,3,4,5-tetrahydro-1-(4-hydroxyphenyl)-[1H]-3-benzazepine-7,8-diol, methane sulfonate]
Level of IL-17 (IL-17 [2]): inhibited
Level of TNF-α (TNF-α [3]): inhibited
Level of IL-23 (IL-23 [6]): inhibited
Stability by MS analysis ([12]; pH of 2.5 and 3.6, after 3 days): stable after 3 days and showed a single peak

SMILES: CC(C)Cn1cnc2c(N)nc3ccccc3c21 [IMQ, imiquimod]
Fold difference in IL-17 levels (↑, vs. Sham) (IL-17 [1]): 1.63 fold and 1.63 ↑ fold
Elevation of IL-17 levels compared to the SHAM group (IL-17 [2]; first animal study): 5 fold
Increase in the TNF-α level compared to the SHAM group (TNF-α [3]; first animal study): 8.42 fold
Increase of IL-23 levels compared to SHAM group (IL-23 [6]; first animal study): 2.30 fold
PASI score for erythema, scaling, and thickness on the 6th day [7]: about 3
Fold difference in IL-23 levels (↑, vs. Sham) (IL-23 [9]): 1.55 fold and 1.55 ↑ fold
Fold difference in TNF-α levels (↑, vs. Sham) (TNF-α [10]): 2.08 fold and 2.08 ↑ fold
Fold difference in IL-22 levels (↑, vs. Sham) (IL-22): 1.36 fold and 1.36 ↑ fold
